Laboratory results taken from patent publication US20070021351A1, “Liver/plasma concentration ratio for dosing hepatitis C virus protease inhibitor” (Schering Corporation, priority 2005, published 2007).

What was measured:
[1] = Liver versus plasma concentration in monkeys (non-GLP assay); format: in vivo; details: about 24 hours after dosing
Method: For the purpose of the present invention and the data presented herein, the liver to plasma ratio is calculated by determining the IC90 of a compound and inferring the concentration of the compound in the liver based on the concentration of the compound which causes a 90% decrease in viral load. […] It is known that concentrations of the compounds of Formulae I-XXVI in the liver of rats are about thirty to fifty times greater than plasma concentrations, whereas concentrations in the brain are below detection. In monkeys, concentration of the compound of Formula Ia determined by non-GLP assay of plasma sample taken about 24 hours after dosing of the compound was about five times greater in the liver than in plasma.

[2] = Tissue distribution; format: in vivo; details: liver as well as extra-hepatic sites
[3] = Example 1: Phase 1 rising-single-dose pharmacokinetic study in healthy adult subjects; format: in vivo, human; details: for DN AUC(I): dose-normalized (to 50 mg); for Tmax: median
Method: A Phase 1, randomized, third-party-blind (within dose level), placebo-controlled, rising-single-dose study of compounds of Formulae I-XXVI was conducted in healthy adult subjects.
Nine subjects in each group received either compound of Formula Ia (n=6) or placebo (n=3). Those subjects randomized to active compound received one of the following doses of compound of Formula Ia: 50, 100, 200, 400, 600, or 800 mg.
On Day 1, at least 10 hours prior to compound administration, an overnight fast was maintained until 4 hours following treatment administration, after which lunch was served. During the fasting period, no food or fluid (except noncarbonated water) was permitted; furthermore, drinking water was prohibited from 2 hours predose to 2 hours postdose, with the exception of the approximately 240 mL administered with the treatments.
Blood samples (7 mL each) for the determination of compound of Formula Ia concentrations were collected immediately prior to dosing (0 hour), and at 0.25, 0.5, 0.75, 1, 1.5, 2, 3, 4, 5, 6, 8, 10, 12, 18, 24, 36, 48, 72, and 144 hours postdose. The blood samples were collected into tubes containing EDTA. The samples were separated by centrifugation at 4° C. for 15 minutes at 1500 g to obtain the plasma, and the plasma samples frozen at −20° C. until assayed.
Plasma concentrations of compound of Formula Ia were determined using a validated liquid chromatography tandem mass spectrometry (LC-MS/MS) method. The assay lower limit of quantitation (LLOQ) was 0.50 ng/mL, and the method was validated over the concentration range of 0.50 to 1000 ng/mL.
The mean and percent coefficients of variation (% CV) were calculated for the plasma concentrations of compound of Formula Ia at each time point. Concentration values less than the assay LLOQ were reported as and set to zero in the calculations and tables. The plasma concentration-time data for compound of Formula Ia were subjected to pharmacokinetic analysis by noncompartmental methods using WinNonlin software. Nominal sampling times were used for pharmacokinetic analysis.
For each subject, the following compound of Formula Ia pharmacokinetic parameters were determined: • Cmax Maximum observed plasma concentration • Tmax Time of maximum observed plasma concentration • tf Time of final quantifiable sample • AUC(tf) Area under the plasma concentration-time curve from time 0 to tf • AUC(I) Area under the plasma concentration-time curve from time 0 to infinity [AUC(I)=AUC(tf)+C(tf)estimated/k, where k and C(tf)estimated are terminal elimination rate constant and estimated concentration at final quantifiable sample, respectively] • t½ Terminal-phase half-life (t½=In2/k) • CL/F Apparent total body clearance (CL/F=Dose/AUC[I]) • Vd/F Apparent volume of distribution (Vd/F=CL/F*(t1/2/0.693))
Dose-adjusted (to 50 mg) Cmax, AUC(I), and AUC(tf) values were also calculated. Cmax, Tmax, and tf were the observed values. The terminal phase rate constant (k) was calculated as the negative of the slope of the log-linear terminal portion of the plasma concentration-time curve using linear regression (at least three time points). The number of points needed to determine the terminal phase rate constant was selected by WinNonlin software.
Summary statistics, including means, standard deviations, and coefficients of variation (CV) expressed as a percent, were computed for the single-dose plasma compound of Formula Ia concentration data at each sampling time point and for the derived pharmacokinetic parameters for each dose level using a standard program based on SAS/STAT (Release 6.12; SAS Institute Inc., North Carolina).
The log-transformed dose-adjusted (to 50 mg) Cmax and AUC values of compound of Formula Ia were statistically analyzed using an analysis of variance (ANOVA) model. The effect due to treatment (dose) was extracted. Ninety-five percent confidence intervals (CIs) for the means at each dose level, based on the nontransformed data, were provided. […]

[4] = single oral 600 mg, fasted healthy adults, mean, n=6

## CC(C)(C)NC(=O)N[C@H](C(=O)N1C[C@H]2[C@@H]([C@H]1C(=O)NC(CC1CCC1)C(=O)C(N)=O)C2(C)C)C(C)(C)C (mixture of isomers) [Formula Ia, (1R,5S)-N-[3-Amino-1-(Cyclobutylmethyl)-2,3-Dioxopropyl]-3-[2(S)-[[[(1,1-Dimethylethyl)Amino]Carbonyl]Amino]-3,3-Dimethyl-1-Oxobutyl]-6,6-Dimethyl-3-Azabicyclo[3.1.0]Hexan-2(S)-Carboxamide]
[1]
  concentration in liver relative to plasma: about five
[2]
  tissue distribution: distributes widely throughout the tissues of the body
[3]; single oral 50 mg, mean, n=6
  DN AUC(I): 181 ng·h/mL
[3]; single oral 100 mg, mean, n=6
  DN AUC(I): 172 ng·h/mL
[3]; single oral 200 mg, mean, n=6
  DN AUC(I): 212 ng·h/mL
[3]; single oral 400 mg, mean, n=6
  DN AUC(I): 195 ng·h/mL
[3]; single oral 600 mg, mean, n=6
  DN AUC(I): 180 ng·h/mL
[3]; single oral 800 mg, mean, n=6
  DN AUC(I): 145 ng·h/mL
[3]; single oral 50 mg, fasted healthy adults, mean, n=6
  AUC(I): 181 ng·h/mL
[3]; single oral 50 mg, fasted healthy adults, n=6
  Tmax: 1.50 h
[3]; single oral 400 mg, fasted healthy adults, mean, n=6
  Cmax: 445 ng/mL
[3]; single oral 400 mg, fasted healthy adults, n=6
  Tmax: 1.75 h
[3]; [4]
  AUC(I): 2158 ng·h/mL
  t½: 10.2 h
[3]; single oral 600 mg, fasted healthy adults, n=6
  Tmax: 2.25 h
[3]; single oral 800 mg, fasted healthy adults, mean, n=6
  AUC(I): 2320 ng·h/mL
[3]; single oral doses 50-800 mg
  dose dependence of Cmax and AUC: increased in a dose-related manner up to the 600 mg dose
